Data reported in patent publication US20040058957A1, “Benzothiophene derivatives and herbicidal compositions containing the same” (priority 2000, published 2004).

Tests used:
[1] = system: Scirpus juncoides; test: Submersion test, treatment 10 days after transplantation: herbicidal effect; format: in vivo; details: rated 30 days after application
Method: (§1) A mixture consisting of 57 parts by weight of talc and 40 parts by weight of bentonite as carrier and 3 parts by weight of sodium alkylbenzenesulfonate as surfactant was pulverized and mixed uniformly to obtain a carrier for wettable powder. Each herbicidal composition was prepared by uniformly pulverizing and mixing 90 parts by weight of the carrier for wettable powder and 10 parts by weight of the benzothiophene derivative produced in each example.
(§2) Seeds of Scirpus juncoides were sowed onto paddy field soil in a Wagner pot of 1/2000 are. Then, rice seedlings of 2.5 leaf stage were transplanted in the soil. Water was pored into the pot so as to submerge the soil at a depth of 3 cm. The pot was placed in a greenhouse maintained at 20 to 25° C. for vegetation. After 10 days from transplantation of the rice seedlings, a predetermined amount of the herbicidal composition prepared in the step [1] was applied to the pot. After 30 days from the application of the herbicidal composition, the herbicidal effect and injury to the paddy rice were determined.
(§3) The herbicidal effect and the injury to crops in the above tests (1) and (2) were evaluated based on the following ratings.
(§4) The degree of weed control (%) was calculated from the weights of the above-ground parts of fresh weeds in the treated area and the untreated area using the following equation:
(§5) Degree of weed control (%)=[1−(weight of weeds in treated area)/(weight of weeds in untreated area)]×100
(§6) The herbicidal effect was determined according to the following ratings: […]

[2] = system: paddy rice; test: Submersion test, treatment 3 days after transplantation: injury to paddy rice; format: in vivo; set-up: key: 0: No injury; 1: Substantially no injury; 2: Slight injury; 3: Some injury; 4: Remarkable injury; 5: Almost all crops dead; details: rated 30 days after application
Method: A mixture consisting of 57 parts by weight of talc and 40 parts by weight of bentonite as carrier and 3 parts by weight of sodium alkylbenzenesulfonate as surfactant was pulverized and mixed uniformly to obtain a carrier for wettable powder. […] Then, rice seedlings of 2.5 leaf stage were transplanted in the soil. Water was pored into the pot so as to submerge the soil at a depth of 3 cm. The pot was placed in a greenhouse maintained at 20 to 25° C. for vegetation. […] After 30 days from the application of the herbicidal composition, the herbicidal effect and injury to the paddy rice were determined. […] The injury to crops was evaluated according to the following ratings: [table]

[3] = system: Scirpus juncoides; test: Submersion test, treatment 3 days after transplantation: herbicidal effect; format: in vivo; details: rated 30 days after application
Method: as §1
as §2, with “3” for “10”
as §3, §4, §5, §6

| SMILES | Herbicidal effect Scirpus juncoides ([1]; application rate 100 g/ha) | Herbicidal effect Scirpus juncoides ([1]; application rate 200 g/ha) | Injury paddy rice ([2]; application rate 100 g/ha) | Injury paddy rice ([2]; application rate 200 g/ha) | Herbicidal effect Scirpus juncoides ([3]; application rate 100 g/ha) | Herbicidal effect Scirpus juncoides ([3]; application rate 200 g/ha) | melting point |
| --- | --- | --- | --- | --- | --- | --- | --- |
| CSC1Cc2c(ccc(C(=O)C3C(=O)CCCC3=O)c2Cl)S1(=O)=O (centres unmarked) [Compound No. 1, 4-chloro-2-methylthio-5-(1,3-dioxocyclohex-2-yl)carbonyl-2,3-dihydrobenzothiophene 1,1-dioxide] | 5 (90% or higher (almost completely dead)) | 5 (90% or higher (almost completely dead)) | 0 | 0 | 5 (90% or higher (almost completely dead)) | 5 (90% or higher (almost completely dead)) | 174.7 to 175.1 °C |
| CSC1Cc2c(ccc(C(=O)C3C(=O)CCCC3=O)c2C)S1(=O)=O (centres unmarked) [Compound No. 10, 4-methyl-2-methylthio-5-(1,3-dioxocyclohex-2-yl)carbonyl-2,3-dihydrobenzothiophene 1,1-dioxide] | 5 (90% or higher (almost completely dead)) | 5 (90% or higher (almost completely dead)) | 0 | 0 | 5 (90% or higher (almost completely dead)) | 5 (90% or higher (almost completely dead)) | 192.7 to 193.2 °C |
| CSC1Cc2c(ccc(C(=O)C3=C(n4cccn4)CCCC3=O)c2Cl)S1(=O)=O (centres unmarked) [Compound No. 39, 4-chloro-2-methylthio-5-[3-(pyrazol-1-yl)-1-oxo-2-cyclohexen-2-yl]carbonyl-2,3-dihydrobenzothiophene 1,1-dioxide] | 4 (70% or higher but less than 90%) | 5 (90% or higher (almost completely dead)) | 0 | 0 | 4 (70% or higher but less than 90%) | 5 (90% or higher (almost completely dead)) |  |
| CSC1Cc2c(ccc(C(=O)C3C(=O)CCCC3=O)c2Br)S1(=O)=O (centres unmarked) [Compound No. 41, 4-bromo-2-methylthio-5-(1,3-dioxocyclohex-2-yl)carbonyl-2,3-dihydrobenzothiophene 1,1-dioxide] | 5 (90% or higher (almost completely dead)) | 5 (90% or higher (almost completely dead)) | 0 | 0 | 5 (90% or higher (almost completely dead)) | 5 (90% or higher (almost completely dead)) |  |
| COCCSC1Cc2c(Cl)c(C(=O)C3C(=O)CCCC3=O)cc(C)c2S1(=O)=O (centres unmarked) [Compound No. 45, 4-chloro-7-methyl-2-(2-methoxyethyl)thio-5-(1,3-dioxocyclohex-2-yl)carbonyl-2,3-dihydrobenzothiophene 1,1-dioxide] | 5 (90% or higher (almost completely dead)) | 5 (90% or higher (almost completely dead)) | 0 | 0 | 5 (90% or higher (almost completely dead)) | 5 (90% or higher (almost completely dead)) |  |
| Cc1cc(C(=O)C2C(=O)CCCC2=O)c(Cl)c2c1S(=O)(=O)C(S(C)(=O)=O)C2 (centres unmarked) [Compound No. 46, 4-chloro-7-methyl-2-methanesulfonyl-5-(1,3-dioxocyclohex-2-yl)carbonyl-2,3-dihydrobenzothiophene 1,1-dioxide] | 4 (70% or higher but less than 90%) | 5 (90% or higher (almost completely dead)) | 0 | 0 | 5 (90% or higher (almost completely dead)) | 5 (90% or higher (almost completely dead)) |  |
| CSC1Cc2c(Cl)c(C(=O)C3=C(Cl)CCCC3=O)cc(C)c2S1(=O)=O (centres unmarked) [Compound No. 49, 4-chloro-7-methyl-2-methylthio-5-(3-chloro-1-oxo-2-cyclohexen-2-yl)carbonyl-2,3-dihydrobenzothiophene 1,1-dioxide] | 5 (90% or higher (almost completely dead)) | 5 (90% or higher (almost completely dead)) | 0 | 0 | 5 (90% or higher (almost completely dead)) | 5 (90% or higher (almost completely dead)) |  |
| CSC1Cc2c(Cl)c(C(=O)C3=C(SCCO)CCCC3=O)cc(C)c2S1(=O)=O (centres unmarked) [Compound No. 50, 4-chloro-7-methyl-2-methylthio-5-[3-(2-hydroxyethyl)thio-1-oxo-2-cyclohexen-2-yl]carbonyl-2,3-dihydrobenzothiophene 1,1-dioxide] | 5 (90% or higher (almost completely dead)) | 5 (90% or higher (almost completely dead)) | 0 | 0 | 5 (90% or higher (almost completely dead)) | 5 (90% or higher (almost completely dead)) |  |
| CSC1Cc2c(Cl)c(C(=O)C3=C(SCCOC(=O)CCl)CCCC3=O)cc(C)c2S1(=O)=O (centres unmarked) [Compound No. 51, 4-chloro-7-methyl-2-methylthio-5-[3-(2-chloroacetoxyethyl)thio-1-oxo-2-cyclohexen-2-yl]carbonyl-2,3-dihydrobenzothiophene 1,1-dioxide] | 4 (70% or higher but less than 90%) | 5 (90% or higher (almost completely dead)) | 0 | 0 | 4 (70% or higher but less than 90%) | 5 (90% or higher (almost completely dead)) |  |
| CSC1Cc2c(Cl)c(C(=O)C3=C(n4cccn4)CCCC3=O)cc(C)c2S1(=O)=O (centres unmarked) [Compound No. 52, 4-chloro-7-methyl-2-methylthio-5-[3-(pyrazol-1-yl) -1-oxo-2-cyclohexen-2-yl]carbonyl-2,3-dihydrobenzothiophene 1,1-dioxide] | 4 (70% or higher but less than 90%) | 5 (90% or higher (almost completely dead)) | 0 | 0 | 4 (70% or higher but less than 90%) | 5 (90% or higher (almost completely dead)) |  |
